Measured values from US7030265B2, “Retinol derivatives, the method of preparations and the uses thereof” (Chebigen, Inc., priority 2001, dated 2006).

How the values were obtained:
Format in all cases: cell-based
[1] = tested on: MDA-MB-231 (breast cancer); test: Cell toxicity test (living cell count); conditions: MDA-MB-231 cells, 0, 500, 1000, 5000 nM, 4 days, FIG. 1
Procedure: (§1) The cell line utilized for cell toxicity test of retinal derivatives were SK-Hep-1(liver cancer), MDA-MB-231 (breast cancer), HaCAT (skin cancer), and HCT116 (colon cancer). Those cell lines were maintained and cultured in DMEM (Dulbecco's Modified Eagle's Medium)/10% FBS containing 10% fetal bovine serum (FBS) (GibcoBRL, Gaithersburg, Md.). 3×10^3 cells, 100 μl media per well were distribute into 96 well microtiter plate and cultured for 24 hours. Each cultured cell lines were treated with various concentrations of retinal derivatives (0, 500, 1000, 5000 nM) for 4 days and living cells were counted with hemocytometer to measure the inhibition effect of cell proliferation.
(§2) The retinal derivatives utilized for the experiments were retinol-(N-formyl-aspartam), retinol, 4-HPR[N-(4-hydroxyphenyl)retineamide] (Sigma Co., St. Louis, Mo.). Those derivatives were eluted in dimethylsulfoxide and the concentration of dimethylsulfoxide added into culture media was kept at not over 0.01%.

HCT116 (colon cancer) = test: Cell toxicity test (living cell count); conditions: HCT116 cells, 0, 500, 1000, 5000 nM, 4 days, FIG. 1
Procedure: as §1, §2

HaCAT (skin cancer) = test: Cell toxicity test (living cell count); conditions: HaCAT cells, 0, 500, 1000, 5000 nM, 4 days, FIG. 1
Procedure: as §1, §2

SK-Hep-1 (liver cancer) = test: Cell toxicity test (living cell count); conditions: SK-Hep-1 cells, 0, 500, 1000, 5000 nM, 4 days, FIG. 1
Procedure: as §1, §2

retinoic acid receptor γ = target: T1, retinoic acid receptor γ (Homo sapiens, UniProt P13631); test: RAR activity test, DR5-tk-CAT reporter in HaCAT cells; conditions: 1 μM, CAT ELISA, FIG. 2 (A)
T1 construct: expressed in transfected cells; b135 says HaCAT
T1 sequence (P13631 1-454): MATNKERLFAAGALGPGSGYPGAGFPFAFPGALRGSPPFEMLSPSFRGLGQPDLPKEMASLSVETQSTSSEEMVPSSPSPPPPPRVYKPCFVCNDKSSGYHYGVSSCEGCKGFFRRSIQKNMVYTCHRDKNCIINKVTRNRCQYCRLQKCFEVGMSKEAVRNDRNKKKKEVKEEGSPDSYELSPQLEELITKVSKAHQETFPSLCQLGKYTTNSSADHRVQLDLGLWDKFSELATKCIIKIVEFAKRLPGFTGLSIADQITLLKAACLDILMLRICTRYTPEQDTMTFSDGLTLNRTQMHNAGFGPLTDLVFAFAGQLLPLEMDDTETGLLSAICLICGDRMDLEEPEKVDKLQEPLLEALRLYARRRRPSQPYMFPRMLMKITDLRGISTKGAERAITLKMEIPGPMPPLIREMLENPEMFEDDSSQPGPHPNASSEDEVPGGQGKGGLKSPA
From the text: (§3) To analyze the effects of retinol-(N-formyl-aspartam) on the activity of retinoic acid receptor, skin cancer (HaCAT) cell lines were utilized to measure the activity of retinoic acid receptor/retinoid X receptor.
(§4) Recombinant DNA, DR5-tk-CAT or DR1-tk-CAT consisting of DR1 or DR5, effectors of retinoic acid receptor/retinoid X receptor, thymine kinase promoter, and CAT(chloramphenicol acetyl transferase) were mixed with the plasmid DNA expressing retinoic acid receptor α, β, ? or retinoid X receptor α, β, ? to cotransfect skin cancer (HaCAT) cell line with lipofectamine (GibcoBRL). The cotransfected cell lines were cultured for 1 day on DMEM/10% FBS media, each retinol derivatives (1 μM) were added and cultured for one more day, 5% CO2, 37° C. The cells were washed with phosphate-buffered saline (PBS), and the proteins were isolated from each cells, and the activity of β-galactosidase and protein contents were measured to determine transfection efficacy, the transcription level of RAR or RXR receptor were measured with CAT ELISA (Roche Molecular Biochemical, Mannheim, Germany).
(§5) To determine the effect of retinol-(N-formyl-aspartam) on retinoic acid receptors, each retinoic acid receptor (α, β, or ? ) expression vector and activity measuring DR5-tk-CAT plasmid were introduced with liposome. After treating cells with retinol-(N-formyl-aspartam), the cell extracts were isolated. The expression level of CAT were measured with CAT ELISA to determine the effect of retinol-(N-formyl-aspartam) on the activity of retinoic acid receptors.

retinoic acid receptor α = target: T2, retinoic acid receptor α (Homo sapiens, UniProt P10276); test: as above; conditions: 1 μM, CAT ELISA, FIG. 2 (A)
T2 construct: expressed in transfected cells; b135 says HaCAT
T2 sequence (P10276 1-462): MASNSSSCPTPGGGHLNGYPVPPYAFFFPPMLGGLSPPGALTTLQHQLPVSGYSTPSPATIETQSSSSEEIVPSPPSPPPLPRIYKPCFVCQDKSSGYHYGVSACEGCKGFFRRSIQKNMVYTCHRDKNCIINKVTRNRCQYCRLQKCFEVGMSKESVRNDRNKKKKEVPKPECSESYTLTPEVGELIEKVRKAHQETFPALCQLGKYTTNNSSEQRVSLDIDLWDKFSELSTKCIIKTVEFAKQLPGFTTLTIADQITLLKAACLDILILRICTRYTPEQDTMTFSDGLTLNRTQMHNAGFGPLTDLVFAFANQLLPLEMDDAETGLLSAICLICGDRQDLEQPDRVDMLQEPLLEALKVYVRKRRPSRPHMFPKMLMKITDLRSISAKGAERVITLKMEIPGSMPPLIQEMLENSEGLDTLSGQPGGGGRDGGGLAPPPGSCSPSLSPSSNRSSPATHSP
From the text: as §3, §4, §5

[2] = tested on: activation protein-1 (AP-1); test: Activity inhibition test of AP-1, Coll-CAT reporter in HaCAT cells; conditions: c-Jun expression, in the presence of retinoic acid receptor α, CAT ELISA, FIG. 6
Procedure: Since the activation protein-1 (c-Jun is the constituent of AP-1) is transcription factor inducing expression of collagenase enzyme, which is a major cause of skin wrinkle, the effect of wrinkle prevention was determined by the activity inhibition test of AP-1.
CAT reporter (Coll-CAT) containing collagen promoter including AP-1 transcription factor binding site (TRE) were utilized to cotransfect skin cancer (HaCAT) cell line. The effect of retinol derivatives on the activity of AP-1 was measured by CAT ELISA. In some cases, the vector expressing c-Jun or retinoic acid receptors were utilized to cotransfect, and the effect of retinol derivatives on the transcription activity of c-Jun was analyzed.
With the assumption of the prepared retinol-(N-formyl-aspartam) derivatives which inhibit the activity of AP-1 causing skin wrinkle, would have the utility for cosmetics, the related investigations were proceeded. Similar to the experiment of retinoic acid receptor, AP-1 (c-jun) expression vector and Coll-CAT plasmid for the activity measurement were introduced into the skin cancer (HaCAT) cell line with liposome. After treating the cells with retinol-(N-formyl-aspartam) derivatives, the cell extracts were isolated. The expression level of CAT were measured with CAT ELISA to determine the effect of retinol-(N-formyl-aspartam) on the activity of the AP-1.

## COC(=O)C(Cc1ccccc1)NC(=O)[C@H](CC(=O)OC/C=C(C)/C=C/C=C(C)/C=C/C1=C(C)CCCC1(C)C)NC=O (stereo partly drawn) [retinol-(N-formyl-aspartam), (2E,4E,6E,8E)-3,7-dimethyl-9-(2,6,6-trimethyl-1-cyclohexenyl)-2,4,6,8-nonatetraenyl(3S)-4-[(1-benzyl-2-methoxy-2-oxoethyl)amino]-3-formylamino-4-oxobutanoate]
[1]
  cell toxicity (inhibition of cell proliferation): no toxicity
HCT116 (colon cancer)
  cell toxicity (inhibition of cell proliferation): less toxicity than retinol
HaCAT (skin cancer)
  cell toxicity (inhibition of cell proliferation): no toxicity
SK-Hep-1 (liver cancer)
  cell toxicity (inhibition of cell proliferation): no toxicity
Retinoic acid receptor γ
  activation of retinoic acid receptor γ: weak activation
Retinoic acid receptor α
  activation of retinoic acid receptor α: high activation
[2]
  lowered the expression of collagenase (Coll-CAT): ~44%
